Laboratory results as given in patent US8012944B2, “Method for treating cancer using IAP antisense oligomer and chemotherapeutic agent” (Pharmascience Inc., priority 2003, dated 2011).
d = 2'-deoxy (DNA); m = 2'-O-methyl

Experiments:
Assay type in all cases: cell-based, human
[1] = tested on: T24 bladder carcinoma cells; assay: Total cellular protein in transfected T24 cells; details: first screen
Experimental: (§1) At day 3, XIAP RNA levels were measured using quantitative real-time PCR techniques, as described above. At day 4, XIAP protein levels were measured by ELISA (FIGS. 1A, 1C, 1E, 1G, 1I, and 1K), and total cellular protein was measured biochemically (FIGS. 1B, 1D, 1F, 1H, 1J, and 1L; used to normalize the XIAP protein levels). The results were compared to a mock transfection sample (treated with the transfection agent but no oligonucleotide DNA was added, and then processed as for the other samples). Time course experiments determined that the optimal time for protein knock-down to be around 12 to 24 hours.
These nucleobase oligomers were also examined for their ability to decrease XIAP mRNA levels at 12 hours, normalized against GAPDH levels, and compared to mock transfection. Total protein concentrations at 12 hours were also determined (FIG. 2C).

XIAP mRNA [2] = assay: XIAP mRNA knock-down in H460 cells (real-time RT-PCR / TaqMan)
Procedure, shortened: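 NCI-H460 cells transfected with phosphorothioate antisense oligonucleotides via Lipofectamine 2000; RNA isolated after 6 h treatment. XIAP mRNA quantified by one-step TaqMan real-time RT-PCR, comparative Ct (threshold 30× baseline SD), normalized to GAPDH and expressed relative to untreated control cells.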

XIAP protein = XIAP protein knock-down in T24 cells (XIAP ELISA, relative to total protein); details: for XIAP protein levels relative to total protein, compared to mock transfection (in words): first screen of the library
Excerpt: (§2) We used TaqMan quantitative PCR (described below) to assay for changes in mRNA levels after oligonucleotide treatment. We employed ELISA for determining XIAP protein levels and western blotting for determining HIAP1 protein levels. Transfection conditions were optimized with Lipofectamine plus or Lipofectamine 2000 (Life Technologies, Canada) on T24 bladder carcinoma cells or H460 non-small cell lung carcinoma cells, or lipofectin on SF-295 glioblastoma cells, using a fluorescein-tagged sense oligonucleotide (5′-mGmAGAAGATGACTGGTAAmCmA-3′; SEQ ID NO: 261) from XIAP spanning the start codon as a control. The results were visualized and gauged by epi-fluorescence microscopy. In the case of T24 cells, transfections were further optimized based on the ability of a published oligonucleotide to downregulate survivin expression (Li et al., Nat. Cell Biol. 1:461-466, 1999) (5′-U/TGTGCTATTCTGTGAAU/TU/T-3′ SEQ ID NO: 262). We optimized the transfection conditions based on the TaqMan results of survivin RNA knock-down detected with PCR primers and fluorescent probe, described in detail below. […] We then applied these conditions to screen for XIAP protein knock-down using the oligo library against T24 cells.
A standard colorimetric XIAP ELISA assay was performed using an affinity-purified rabbit polyclonal antibody to XIAP as a capture antibody, and was detected with a XIAP monoclonal antibody (MBL, Japan) and a biotinylated anti-mouse Ig antibody and horseradish peroxidase-conjugated streptavidin and TMB substrate. Alternatively, a polyclonal XIAP or HIAP1 antibody may be used to measure XIAP or HIAP1 protein levels, respectively.
The XIAP synthetic library of 96 antisense oligonucleotides was first screened for decreases in XIAP protein levels. Specifically, T24 cells (1.5×10^4 cells/well) were seeded in wells of a 96-well plate on day 1, and were cultured in antibiotic-free McCoy's medium for 24 hours. On day 2, the cells were transfected with XIAP antisense oligonucleotides as described above (oligonucleotides are labeled according to their plated position, i.e., A1 to H12, and include two repeats, A13 and B13 that contain lyophilized DNA pellets that stuck to the sealing membrane). Briefly, the nucleobase oligomers were diluted in 10 μl/well of serum-free, antibiotic-free McCoy's medium and then PLUS reagent was added. Lipofectamine was diluted in 10 μl/well of serum-free, antibiotic-free McCoy's medium, and both mixes were incubated for 15 minutes at room temperature. The mixes were then combined and incubated for 15 minutes at room temperature.
In the meantime, the complete medium was removed from the cells and 50 μl/well of serum-free, antibiotic-free medium was added to the cells. The transfection mixes were added to the well, and the cells were incubated for three hours. Then 30 μl/well of serum-free, antibiotic-free medium and 100 μl/well of antibiotic-free complete medium, containing 20% fetal bovine serum were added to each well.
as §1, with “hours. […]” for “hours.”

XIAP mRNA [3] = assay: XIAP mRNA knock-down in H460 cells (real-time RT-PCR / TaqMan); details: 2 × 2 MBO; NCI-H460 cells, 9 hours post-transfection; relative level (mock control 1.01)
XIAP RNA = XIAP RNA knock-down in T24 cells (TaqMan quantitative PCR)
Excerpt: as §2
RNA was extracted from cells lysed in RLT buffer (QIAGEN, Valencia, Calif.), and purified using QIAGEN RNeasy columns/kits. Real-time quantitative PCR was performed on a Perkin-Elmer ABI 7700 Prism PCR machine. RNA was reverse transcribed and amplified according to the TaqMan Universal PCR Master Mix protocol of PE Biosystems, using primers and probes designed to specifically recognize XIAP, HIAP1, survivin, or GAPDH. For human survivin, the forward primer was 5′-[…]-3′ (SEQ ID NO: 263), the reverse primer was 5′-GAAAGGAAAGCGCAACCG-3′ (SEQ ID NO: 264), and the probe was 5′-(FAM)[…](TAMRA)-3′ (SEQ ID NO: 265). For human HIAP1, the forward primer was 5′-[…]-3′ (SEQ ID NO: 266), the reverse primer was 5′-[…]-3′ (SEQ ID NO: 267), and the probe was 5′-(FAM)[…](TAMRA)-3′ (SEQ ID NO: 268). For human XIAP, the forward primer was 5′-[…]-3′ (SEQ ID NO: 269), the reverse primer was 5′-[…]-3′ (SEQ ID NO: 270), and the probe was 5′-(FAM)[…](TAMRA)-3′ (SEQ ID NO: 271). For human GAPDH, the forward primer was 5′-GAAGGTGAAGGTCGGAGTC-3′ (SEQ ID NO: 272), the reverse primer was 5′-GAAGATGGTGATGGGATTC-3′ (SEQ ID NO: 273), and the probe was 5′-(JOE)[…](TAMRA)-3′ (SEQ ID NO: 274). FAM is 6-carboxyfluoroscein, JOE is 6-carboxy-4,5-dichloro-2,7-dimethoxyfluoroscein, and TAMRA is 6-carboxy-N,N,N′,N′-tetramethylrhodamine. FAM and JOE are 5′ reporter dyes, while TAMRA is a 3′ quencher dye.
Relative quantification of gene expression was performed as described in the PE Biosystems manual using GAPDH as an internal standard. The comparative Ct (cycle threshold) method was used for relative quantitation of IAP mRNA levels compared to GAPDH mRNA levels. Briefly, real-time fluorescence measurements were taken at each PCR cycle and the threshold cycle (Ct) value for each sample was calculated by determining the point at which fluorescence exceeded a threshold limit of 30 times the baseline standard deviation. The average baseline value and the baseline SD are calculated starting from the third cycle baseline value and stopping at the baseline value three cycles before the signal starts to exponentially rise. The PCR primers and/or probes for the specific IAPs were designed to span at least one exon-intron boundary separated by 1 kb or more of genomic DNA, to reduce the possibility of amplifying and detecting genomic DNA contamination. The specificity of the signal, and possible contamination from DNA, were verified by treating some RNA samples with either DNase or RNase, prior to performing the reverse transcription and PCR reaction steps.
The XIAP synthetic library of 96 antisense oligonucleotides was first screened for decreases in XIAP protein levels. […]

[4] = tested on: T24 bladder carcinoma cells; assay: T24 cell viability and chemosensitization (WST-1 tetrazolium dye assay); details: adriamycin 0.5 μg/ml for 20 hours after transfection, vs oligonucleotide alone
Experimental: T24 cells were transfected with XIAP antisense oligonucleotides, scrambled oligonucleotides, no oligonucleotides (mock transfected), or were left untreated. The cells were tested for viability 20 hours after transfection (with the exception of the untreated control) using the WST-1 tetrazolium dye assay in which WST-1 tetrazolium dye is reduced to a colored formazan product in metabolically active cells (FIG. 5A).
To examine the effects of the nucleobase oligomers on the chemosensitization of the T24 cells to cisplatin or adriamycin, oligonucleotides were tested for their ability to further kill T24 cells in the presence of a fixed dose of adriamycin (0.5 μg/ml). Cells were first transfected with a oligonucleotide, then adriamycin was added for another 20 hours. Viability was measured by WST-1 at the end of the 20-hour drug treatment (FIG. 5B). Results are shown in FIG. 5C as percentage viability compared to nucleobase oligomer treatment alone.

Sequence	total protein (toxic or cytostatic effect) [1]	XIAP down-regulation H460 RNA (XIAP mRNA [2]) [%]	XIAP protein levels relative to total protein, compared to mock transfection (in words) (XIAP protein)	XIAP RNA (XIAP mRNA [3])	XIAP down-regulation T24 RNA (XIAP RNA) [%]	XIAP down-regulation T24 protein (XIAP protein) [%]	further drop in survival with adriamycin [4] [%]
AGTTAAATGAATATTGTTT (antisense; sugars from the 5' end m2 d15 m2, backbone and T or U not given here; further chemistry not fully specified) [Code B9]	clear drop	38	no relative drop	0.74			
ATCTTCTCTTGAAAATAGG (sugars from the 5' end m2 d15 m2, linkages s1 o16 s1 (s phosphorothioate, o phosphodiester), T or U not given here) [Code F3]			some decrease		44	53	40
GACACTCCTCAAGTGAATG (antisense; sugars from the 5' end m2 d15 m2, backbone, methylation of C and T or U not given here; further chemistry not fully specified) [Code C9]	clear drop		no relative drop				
GATTCACTTCGAATATTAA (sugars from the 5' end m2 d15 m2, linkages s1 o16 s1 (s phosphorothioate, o phosphodiester), methylation of C not given here) [Code D7]		46	some decrease		56	88	40
